According to publication PMC5554137, “Evaluation of novel factor Xa inhibitors from Oxya chinensis sinuosa with anti-platelet aggregation activity” (Scientific Reports, 2017):

Experiments:
[1] = biological target: T1, FXa (Homo sapiens, UniProt P00742); assay: Chromogenic substrate assay, Ki determination, Factor Xa; assay type: biochemical
T1 construct: purchased Haematologic Technologies (Essex Junction, VT, USA)
Method: (§1) The inhibitor (I) constants (Ki) were determined for the inhibition of a series of human enzymes (FXa, thrombin, trypsin, plasmin, protein Ca, streptokinase, tPA, and urokinase) by each compound. Chromogenic substrate assays were performed using a Labsystems IEMS (Cergy Pontoise, France) microtiter plate reader. In each assay, the compound was tested at a minimum of seven concentrations in duplicate to obtain an inhibition curve. Assays were performed according to the following general procedure. In a 96-well microtiter plate, 25 μL of compound, inhibitor solution or buffer was added to 50 μL of substrate. A volume of 25 μL of enzyme solution was added just before the plate was placed in the microtiter plate reader for 1 h at 37 °C. The hydrolysis of the substrate yields p-nitroaniline, which was continuously monitored spectrophotometrically at 405 nm. Data were collected and the initial rate of substrate hydrolysis [Vo (mOD/minute)] was calculated. Following Michaelis-Menten kinetics, the affinity of the enzyme for the substrate, in the absence of the inhibitor (Km) and in the presence of an inhibitor (Kp), was determined to be the negative inverse x-intercept of Lineweaver–Burk plots. The dissociation constant for inhibition (Ki) was calculated using the following equation: Ki = (Km·[I])/(Kp − Km) as described by Williams and Morrison[40].

[2] = test system: C57BL/6 mice; assay: Tail bleeding time; assay type: in vivo; conditions: tail-cutting assay, mean ± SD, n = 10
Method: Figure 4 Effects of compounds 1–4 on clotting and bleeding time. (A) One hour after administration (intravenous injection) of compound 1 (white box), 2 (light gray box), 3 (dark gray box), or 4 (black box), blood was collected from the mice and platelet-poor plasma (PPP) was obtained by centrifugation at 2,000 × g for 10 min at room temperature to test ex vivo activated partial thromboplastin time (aPTT). (B) Each group received a daily intravenous injection of the indicated compound for four consecutive days. Fifteen minutes after the last administration, blood samples were collected and in vivo aPTT was measured. (C) Fifteen minutes after administration of each compound or aspirin (4.5 or 9 mg/kg for 30 min) or the vehicle, tail tips (3 mm long) were cut from each mouse, and the remaining tail was immediately immersed into saline at 37 °C. Accumulated bleeding times (including periods of re-bleeding) were recorded. D = 0.2% DMSO used as the vehicle control. Data are presented as means ± SD of three independent experiments. *p < 0.05 vs. vehicle alone, analyzed by one-way ANOVA, followed by Tukey multiple comparison testing.
To assess bleeding risk incurred by compounds 1–4, we measured bleeding time in mice treated with each compound (up to 30 µM/mouse) by using a tail-cutting assay; the concentration used was three-fold higher than the doses used for the in vivo anti-thrombotic studies. Aspirin-treated mice (9 mg/kg) served as positive controls. […] However, the bleeding time in mice treated with compounds 1–4 was shorter than that observed in mice treated with aspirin ([…], mean ± SD, n = 10). The dose required to avoid thrombus formation and to protect against paralysis or death in mice was determined to be 5 µM per mouse (Fig. 7C).
Tail bleeding times were measured using the method described by Dejana et al.[37]. Briefly, C57BL/6 mice were fasted overnight prior to the experiments. […] after the i.v. administration of each compound, the tails of the mice were transected […] from their tips. Bleeding time was defined as the time elapsed until bleeding stopped. Bleeding times that exceeding 15 min were recorded as 15 min.

[3] = test system: HUVECs; assay: Production of factor Xa on the surface of TNF-α-stimulated HUVECs; assay type: cell-based, human; conditions: 10 min pre-incubation
Method: Figure 6 Effects of compounds 1–4 on inhibition and production of FXa. […] The plots represent means of three independent measurements. (E) Human umbilical vein endothelial cells (HUVECs) were pre-incubated with the indicated concentration of each compound for 10 min. HUVECs stimulated with tumor necrosis factor-α (TNF-α, 10 ng/mL for 6 h) were incubated with FVIIa (10 nM) and FX (175 nM) in the absence or presence of anti-TF IgG (25 µg/mL). FXa production was determined as described in the “ Supplementary Materials and Methods” section. D = 0.2% DMSO used as the vehicle control. (F) Inhibition of FXa by each compound (5 μM) with or without TFPI (2 nM) was monitored using a chromogenic assay. ^* p < 0.05 vs. TNF-α alone (E) or each compound (F) alone, analyzed via one-way ANOVA, followed by Tukey multiple comparison testing.
Production of FXa by FVIIa is dependent on tissue factor (TF) expression in tumor necrosis factor-α (TNF-α)-stimulated HUVECs[22]. Thus, we investigated the effects of compounds 1–4 on the production of FXa by FVIIa. HUVECs were stimulated with TNF-α to induce TF expression, causing an 11.9-fold increase in the rate of FX production by FVIIa (109.4 ± 9.2 nM) over that of non-stimulated HUVECs (9.2 ± 0.8 nM). […] We next determined whether each compound compete with tissue factor pathway inhibitor (TFPI) in the inhibition of FXa. […]

[4] = biological target: Urokinase (Homo sapiens, UniProt P00749); assay: Chromogenic substrate assay, Ki determination, Urokinase; assay type: biochemical
Method: as §1

[5] = test system: Streptokinase (Homo sapiens); assay: Chromogenic substrate assay, Ki determination, Streptokinase; assay type: biochemical
Sequence of Streptokinase (Homo sapiens) (P00747 581-810 limits assumed): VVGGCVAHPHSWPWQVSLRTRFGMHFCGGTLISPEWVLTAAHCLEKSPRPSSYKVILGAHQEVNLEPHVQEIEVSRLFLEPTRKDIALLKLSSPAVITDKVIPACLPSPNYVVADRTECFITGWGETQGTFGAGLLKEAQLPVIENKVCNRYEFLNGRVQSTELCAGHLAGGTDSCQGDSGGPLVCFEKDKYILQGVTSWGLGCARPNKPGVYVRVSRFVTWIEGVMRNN
Method: as §1

[6] = test system: Trypsin; assay: Chromogenic substrate assay, Ki determination, Trypsin; assay type: biochemical, human
Method: as §1

T1 sequence (P00742 235-488 limits assumed): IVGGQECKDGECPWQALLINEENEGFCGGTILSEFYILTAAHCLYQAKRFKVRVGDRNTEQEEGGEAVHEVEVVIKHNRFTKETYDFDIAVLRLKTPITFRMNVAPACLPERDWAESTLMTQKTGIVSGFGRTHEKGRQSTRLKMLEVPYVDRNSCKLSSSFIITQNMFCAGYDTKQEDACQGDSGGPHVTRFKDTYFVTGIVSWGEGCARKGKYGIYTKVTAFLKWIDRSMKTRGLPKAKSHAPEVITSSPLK
T1 sequence (P00742 41-179 limits assumed): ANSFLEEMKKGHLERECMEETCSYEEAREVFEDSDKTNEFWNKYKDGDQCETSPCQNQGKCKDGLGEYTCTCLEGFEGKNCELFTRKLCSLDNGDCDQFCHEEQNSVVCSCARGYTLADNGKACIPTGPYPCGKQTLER

## CC(=O)NCCc1ccc2c(c1)O[C@H](c1ccc(O)c(O)c1)[C@H](NC(C)=O)O2 [Compound 1, (2 R,3 R)-2-(3′,4′-dihydroxyphenyl)-3-acetylamino-7-(N-acetyl-2″-aminoethyl)-1,4-benzodioxane]
[1]
  Ratio = Ki enzyme/Ki Factor Xa, Factor Xa: 1
[1]; substrate S-2765 (Table 3), mean ± SD (n = 5)
  Ki: 2.96 ± 0.25 µM
[2]; mice treated with 10 µM
  bleeding time: 13.5 ± 1.3 min
[2]; mice treated with 30 µM
  bleeding time: 14.3 ± 1.2 min
[3]
  inhibition of FXa production (generation) by FVIIa in HUVECs: strongest inhibition
[4]
  Ratio = Ki enzyme/Ki Factor Xa, Urokinase: >100
[4]; substrate S-2444
  Ki: > 300 µM
[5]
  Ratio = Ki enzyme/Ki Factor Xa, Streptokinase: >100
[5]; substrate S-2251
  Ki: > 300 µM
[6]
  Ratio = Ki enzyme/Ki Factor Xa, Trypsin: >100
[6]; substrate S-2222
  Ki: > 300 µM
